Measured values from ChEMBL document CHEMBL5136995, “Structure-based optimization of hydroxylactam as potent, cell-active inhibitors of lactate dehydrogenase” (Bioorg Med Chem Lett, 2022).

Key:
[1] = target: L-lactate dehydrogenase A chain (Homo sapiens, UniProt P00338); experiment: Inhibition of LDHA (unknown origin)
[2] = AUC in mouse at 200 mg/kg, po; assay type: ADME, organism-based; parameters: dose 200 mg/kg, route po; conditions: in vivo
[3] = Clearance in mouse at 1 mg/kg, iv; assay type: ADME, organism-based; conditions: in vivo
[4] = Half-life in mouse at 1 mg/kg, iv; assay type: ADME, organism-based; conditions: in vivo
[5] = Inhibition of lactate production in human MIA PaCa-2 cells; assay type: functional, cell-based
[6] = AUC in mouse at 50 mg/kg, po; assay type: ADME, organism-based; parameters: dose 50 mg/kg, route po; conditions: in vivo
[7] = AUC in mouse at 5 mg/kg, po; assay type: ADME, organism-based; parameters: dose 5 mg/kg, route po; conditions: in vivo
[8] = Cmax in mouse at 1 mg/kg, iv; assay type: ADME, organism-based; parameters: dose 1 mg/kg, route iv; conditions: in vivo
[9] = Cmax in mouse at 50 mg/kg, po; assay type: ADME, organism-based; parameters: dose 50 mg/kg, route po; conditions: in vivo
[10] = Cmax in mouse at 200 mg/kg, po; assay type: ADME, organism-based; parameters: dose 200 mg/kg, route po; conditions: in vivo
[11] = Cmax in mouse at 5 mg/kg, po; assay type: ADME, organism-based; parameters: dose 5 mg/kg, route po; conditions: in vivo
[12] = Toxicity in mouse xenografted with human MIA PaCa-2 cells assessed as effect on body weight at 200 to 400 mg/kg administered twice a day for 28 days; assay type: organism-based; conditions: in vivo, 672 h, dose 200-400 mg/kg, time 28 day
[13] = AUC in mouse at 100 mg/kg, po; assay type: ADME, organism-based; parameters: dose 100 mg/kg, route po; conditions: in vivo
[14] = Lipophilicity, logD of compound; assay type: physicochemical; conditions: octanol/water
[15] = Volume of distribution at steady state in mouse at 1 mg/kg, iv; assay type: ADME, organism-based; conditions: in vivo, read-out: Vdss
[16] = Apparent permeability across apical to basolateral side in MDCK cells at 100 uM by HPLC analysis; assay type: ADME, cell-based, Canis lupus familiaris; conditions: dog
[17] = Plasma protein binding in mouse; assay type: ADME, cell-free; conditions: read-out: PPB
[18] = AUC in mouse at 1 mg/kg, iv; assay type: ADME, organism-based; parameters: dose 1 mg/kg, route iv; conditions: in vivo
[19] = Cmax in mouse at 100 mg/kg, po; assay type: ADME, organism-based; parameters: dose 100 mg/kg, route po; conditions: in vivo
[20] = Oral bioavailability in mouse at 5 mg/kg; assay type: ADME, organism-based; conditions: in vivo
[21] = target: L-lactate dehydrogenase B chain (Homo sapiens, UniProt P07195); experiment: Inhibition of LDHB (unknown origin)
Sequence of L-lactate dehydrogenase B chain (P07195 whole entry): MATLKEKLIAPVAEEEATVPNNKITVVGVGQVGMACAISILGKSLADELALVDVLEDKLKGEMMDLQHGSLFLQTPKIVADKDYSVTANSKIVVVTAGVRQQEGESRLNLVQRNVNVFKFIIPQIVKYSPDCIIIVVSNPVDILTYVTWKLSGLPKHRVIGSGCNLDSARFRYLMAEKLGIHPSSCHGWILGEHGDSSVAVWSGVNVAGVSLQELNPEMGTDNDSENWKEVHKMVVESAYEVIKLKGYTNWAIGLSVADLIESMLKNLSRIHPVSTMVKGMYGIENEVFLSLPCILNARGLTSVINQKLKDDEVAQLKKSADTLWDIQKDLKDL

| IC50 [1] [nM] | Compound | also measured |
| --- | --- | --- |
| 22 | O=C1OC(c2ccsc2)(c2ccccc2O)CC(O)=C1Sc1ccccc1Cl (stereo in doubt; 17) |  |
| 13 | Nc1cccc(C2(c3ccsc3)CC(O)=C(Sc3ccccc3Cl)C(=O)O2)c1 (stereo in doubt; 20) |  |
| 1.6 | O=C1N[C@](c2cccc(Nc3ccc(F)cc3)n2)(c2cccc(Nc3ccc(F)c(F)c3)n2)CC(O)=C1Sc1ccccc1Cl | AUC [2]: 411 µM·h; clearance [3]: 4.89 mL/min/kg; half-life [4]: 2.81 h; IC50 [5]: 2000 nM; AUC [6]: 71.2 µM·h; AUC [7]: 19.4 µM·h; Cmax [8]: 7.36 µM; Cmax [9]: 23.3 µM; Cmax [10]: 117 µM; Cmax [11]: 5.95 µM; Activity [12]: Non-Toxic; AUC [13]: 235 µM·h; logD [14]: 2.2; Vd [15]: 0.671 L/kg; Papp A→B at 100 µM [16]: 4.6 ×10⁻⁶ cm/s; fraction unbound [17]: 0.001; AUC [18]: 6.5 µM·h; Cmax [19]: 66.9 µM; bioavailability [20]: 59.5% |
| 6.9 | O=C1OC(c2ccsc2)(c2cccc(Nc3ccc(F)cc3)n2)CC(O)=C1Sc1ccccc1Cl (stereo in doubt; 31) |  |
| 43 | CC(=O)Nc1cccc(C2(c3ccsc3)CC(O)=C(Sc3ccccc3Cl)C(=O)O2)c1 (racemic) |  |
| 36 | O=C1O[C@](c2ccsc2)(c2cccc(Nc3ccc(F)cc3)c2)CC(O)=C1Sc1ccccc1Cl |  |
| 90 | O=C1OC(c2ccccc2)(c2ccsc2)CC(O)=C1Sc1ccccc1Cl (stereo in doubt; 5) |  |
| 430 | O=C1OC(c2ccccc2)(c2ccsc2)CC(O)=C1Sc1ccccc1Cl (stereo in doubt; 6) |  |
| 2.7 | O=C1NC(c2cccc(Nc3ccc(F)c(F)c3)n2)(c2cccc(NC3CCOCC3)n2)CC(O)=C1Sc1ccccc1Cl (stereo in doubt; 36) | IC50 [5]: 7200 nM; logD [14]: 2.4 |
| 1100 | O=C1OC(c2ccccc2)(c2cscn2)CC(O)=C1Sc1ccccc1Cl (stereo in doubt; 10) | IC50 [21]: 2800 nM |
| 450 | Nc1cccc(C2(c3ccccc3)CC(O)=C(Sc3ccccc3Cl)C(=O)O2)c1 (stereo in doubt; 23) | IC50 [21]: 3800 nM |
| 2.9 | O=C1OC(c2ccsc2)(c2cccc(Nc3ccc(F)cc3)n2)CC(O)=C1Sc1ccccc1Cl (stereo in doubt; 30) |  |
| 180 | O=C1OC(c2ccccc2)(c2cscn2)CC(O)=C1Sc1ccccc1Cl (stereo in doubt; 9) | IC50 [21]: 550 nM |
| 4 | O=C1O[C@@](c2ccsc2)(c2cccc(Nc3ccc(F)cc3)c2)CC(O)=C1Sc1ccccc1Cl |  |
| 37 | O=C1NC(c2ccc(N3CCOCC3)cc2)(c2cccc(Oc3ccc(F)cc3)n2)CC(O)=C1Sc1ccccc1Cl (stereo in doubt; 51) |  |
| 190 | O=C1NC(c2cccc(NCCC3CC3)n2)(c2cccc(Nc3ccc(F)c(F)c3)n2)CC(O)=C1Sc1ccccc1Cl (stereo in doubt; 41) |  |
| 160 | O=C1NC(c2cccc(NCc3ccc(F)cc3)n2)(c2cccc(Nc3ccc(F)c(F)c3)n2)CC(O)=C1Sc1ccccc1Cl (stereo in doubt; 43) |  |
| 970 | O=C1OC(c2ccsc2)(c2ccccn2)CC(O)=C1Sc1ccccc1Cl (stereo in doubt; 12) | IC50 [21]: 3200 nM |
| 130 | O=C1OC(c2ccsc2)(c2ccccn2)CC(O)=C1Sc1ccccc1Cl (stereo in doubt; 11) | IC50 [21]: 540 nM |
| 3.7 | O=C1N[C@@](c2cccc(Nc3ccc(F)cc3)n2)(c2cccc(Nc3ccc(F)c(F)c3)n2)CC(O)=C1Sc1ccccc1Cl |  |
| 3.8 | O=C1NC(c2cccc(Nc3ccc(F)c(F)c3)n2)(c2cccc(Oc3cccc4ncccc34)n2)CC(O)=C1Sc1ccccc1Cl (stereo in doubt; 46) | IC50 [5]: 3600 nM; logD [14]: 2.2; IC50 [21]: 25 nM |
| 1200 | O=C1OC(c2ccccn2)(c2ccccn2)CC(O)=C1Sc1ccccc1Cl | IC50 [21]: 2900 nM |
| 220 | O=C1OC(c2ccccc2)(c2cccs2)CC(O)=C1Sc1ccccc1Cl (stereo in doubt; 8) | IC50 [21]: 1500 nM |
| 920 | O=C1OC(c2ccccc2)(c2ccccn2)CC(O)=C1Sc1ccccc1Cl (stereo in doubt; 2) |  |
| 1.8 | O=C1NC(c2ccc(N3CCOCC3)cc2)(c2cccc(Oc3ccc(F)cc3)n2)CC(O)=C1Sc1ccccc1Cl (stereo in doubt; 50) | IC50 [5]: 1700 nM; logD [14]: 1.9; Papp A→B at 100 µM [16]: 2.2 ×10⁻⁶ cm/s; fraction unbound [17]: 0.001 |
| 26 | O=C1OC(c2ccccc2)(c2ccccc2O)CC(O)=C1Sc1ccccc1Cl (stereo in doubt; 14) | IC50 [21]: 75 nM |

| IC50 [1] [nM] | Compound | also measured |
| --- | --- | --- |
| 75 | O=C1NC(c2ccsc2)(c2cccc(Nc3ccc(F)c(F)c3)n2)CC(O)=C1Sc1ccccc1Cl (stereo in doubt; 39) |  |
| 13 | O=C1NC(c2cccc(NCCC3CC3)n2)(c2cccc(Nc3ccc(F)c(F)c3)n2)CC(O)=C1Sc1ccccc1Cl (stereo in doubt; 40) |  |
| 2.9 | O=C1OC(c2ccsc2)(c2cccc(Nc3ccc(F)cn3)c2)CC(O)=C1Sc1ccccc1Cl (stereo in doubt; 28) |  |
| 63 | O=C1OC(c2ccsc2)(c2cccc(Nc3ccc(F)cn3)c2)CC(O)=C1Sc1ccccc1Cl (stereo in doubt; 29) |  |
| 66 | O=C1OC(c2ccsc2)(c2cccc(NCC(F)(F)F)c2)CC(O)=C1Sc1ccccc1Cl (racemic) |  |
| 2.2 | O=C1OC(c2ccsc2)(c2ccccc2O)CC(O)=C1Sc1ccccc1Cl (stereo in doubt; 16) |  |
| 0.9 | O=C1NC(c2cccc(Nc3ccc(F)c(F)c3)n2)(c2cccc(NC3CCCCC3)n2)CC(O)=C1Sc1ccccc1Cl (stereo in doubt; 34) | IC50 [5]: 2200 nM; logD [14]: 2.6 |
| 220 | O=C1OC(c2ccsc2)(c2ccccc2F)CC(O)=C1Sc1ccccc1Cl (stereo in doubt; 18) |  |
| 130 | Nc1cccc(C2(c3ccccc3)CC(O)=C(Sc3ccccc3Cl)C(=O)O2)c1 (stereo in doubt; 22) | IC50 [21]: 250 nM |
| 430 | O=C1OC(c2ccccc2)(c2ccccc2O)CC(O)=C1Sc1ccccc1Cl (stereo in doubt; 15) | IC50 [21]: 950 nM |
| 1000 | O=C1OC(c2ccccc2)(c2ccccc2)CC(O)=C1Sc1ccccc1Cl | IC50 [21]: 3100 nM |
| 10 | O=C1NC(c2ccsc2)(c2cccc(Nc3ccc(F)c(F)c3)n2)CC(O)=C1Sc1ccccc1Cl (stereo in doubt; 38) | IC50 [5]: 9100 nM; logD [14]: 1.1 |
| 4.4 | O=C1NC(c2cccc(Nc3ccc(F)c(F)c3)n2)(c2cccc(NC3CCCCC3)n2)CC(O)=C1Sc1ccccc1Cl (stereo in doubt; 35) |  |
| 2.5 | O=C1NC(c2ccc(N3CCOCC3)cc2)(c2cccc(Nc3ccc(F)cc3)n2)CC(O)=C1Sc1ccccc1Cl (stereo in doubt; 48) | logD [14]: 2 |
| 8.6 | O=C1NC(c2cccc(NCc3ccc(F)cc3)n2)(c2cccc(Nc3ccc(F)c(F)c3)n2)CC(O)=C1Sc1ccccc1Cl (stereo in doubt; 42) | logD [14]: 2.5 |
| 11 | O=C1NC(c2ccc(N3CCOCC3)cc2)(c2cccc(Nc3ccc(F)cc3)n2)CC(O)=C1Sc1ccccc1Cl (stereo in doubt; 49) |  |
| 2.5 | O=C1NC(c2cccc(Nc3ccc(F)c(F)c3)n2)(c2cccc(Oc3ccccc3)n2)CC(O)=C1Sc1ccccc1Cl (stereo in doubt; 44) | IC50 [5]: 5300 nM; logD [14]: 2.6 |
| 90 | O=C1OC(c2cccs2)(c2cccs2)CC(O)=C1Sc1ccccc1Cl |  |
| 2400 | O=C1OC(c2ccccc2)(c2ccccn2)CC(O)=C1Sc1ccccc1Cl (stereo in doubt; 3) |  |
| 190 | Nc1cccc(C2(c3ccsc3)CC(O)=C(Sc3ccccc3Cl)C(=O)O2)c1 (stereo in doubt; 21) |  |
| 68 | O=C1NC(c2cccc(Nc3ccc(F)c(F)c3)n2)(c2cccc(Oc3cccc4ncccc34)n2)CC(O)=C1Sc1ccccc1Cl (stereo in doubt; 47) | IC50 [21]: 650 nM |
| 450 | O=C1OC(c2ccsc2)(c2ccccc2F)CC(O)=C1Sc1ccccc1Cl (stereo in doubt; 19) |  |
| 120 | O=C1OC(c2ccccc2)(c2cccs2)CC(O)=C1Sc1ccccc1Cl (stereo in doubt; 7) | IC50 [21]: 1300 nM |
| 55 | O=C1NC(c2cccc(Nc3ccc(F)c(F)c3)n2)(c2cccc(NC3CCOCC3)n2)CC(O)=C1Sc1ccccc1Cl (stereo in doubt; 37) |  |
| 3.2 | O=C1NC(c2cccc(Nc3ccc(F)c(F)c3)n2)(c2cccc(Oc3ccccc3)n2)CC(O)=C1Sc1ccccc1Cl (stereo in doubt; 45) |  |
